In patent publication US8288379B2, “Thia-triaza-cyclopentazulenes” (Boehringer Ingelheim International GmbH, priority 2009, dated 2012) one finds IC50 and EC50 data, which are given here for 15 compounds.

The target of one assay is T1, FRAP1 (mTOR) kinase (Homo sapiens, UniProt P42345).
T1 construct: purchased Invitrogen PV4753
Description: Inhibition of mTOR-induced p-4E-BP1 phosphorylation (TR-FRET mTOR Activity Kit; Invitrogen). In kind it is biochemical. Conditions: 400 nM GFP-4E-BP1 substrate, ~150 ng/mL mTOR, one hour at room temperature. From the text:
Inhibition of mTOR-Induced p-4E-BP1 Phosphorylation (TR-FRET mTOR Activity Kit; Invitrogen)
• GFP-4E-BP1 substrate; Invitrogen order no. PV4759 • Lanthascreen Tb-anti-p4E-BP1 (pThr46) Antibody Kit; Invitrogen order no. PV4758 • FRAP1 (mTOR) kinase; Invitrogen order no. […] Preparation of Reagents: Note: Thaw and keep mTOR, the substrate, ATP, and the antibody on ice prior to making working dilutions. Working dilutions of these components can be kept at room temperature for short periods of time the day of use. 1. Add 2 ml of 5× Assay Buffer to 8 ml water to prepare 10 ml of 1× Assay Buffer. Note: The concentration of 1× Assay Buffer is 50 mM HEPES pH 7.5, 0.01% Polysorbate 20, 1 mM EGTA, and 10 mM MnCl2. 2. Prepare Antibody/EDTA Solution by first adding 2.75 n1 of Tb-anti p4E-BP1 Antibody to 2397 n1 of LanthaScreen™ TR-FRET Dilution Buffer. Then, add 100 n1 of 0.5 M EDTA. 3. Prepare 4× Substrate/Enzyme Solution by first adding 72 n1 of GFP-4E-BP1 (22 nM) to 926 n1 of 1× Assay Buffer. Then, add 1.6 n1 of mTOR (0.45 mg/mL). 4. Prepare ATP Solution by adding 3.2 n1 of 10 mM ATP to 1997 n1 of 1× Assay Buffer. Serial Dilution of Inhibitors (16 Point Curve): Note: It is recommended that inhibitors be serially diluted in DMSO, then diluted to a 4× working concentration with 1× Assay Buffer. The below procedure describes dilution of compounds in a 96-well format prior to transfer to a 384-well format for kinase assays. This procedure calls for dilution of the compounds in 2 adjacent columns of a 96-well plate, which upon transfer to a single column of a 384-well plate with an 8-channel pipette will align the samples in order of concentration. 1. Dispense 40 n1 of DMSO to two adjacent columns of a 96 well plate per compound (e.g. columns 1 and 2). 2. Add 10 n1 of inhibitor stock (10 mM) to the first well of the first column (A1) and mix. 3. Remove 10 n1 from A1 and transfer to the adjacent well in the next column (B1) and mix. 4. Remove 10 n1 from B1 and transfer to the next well in the first column (B2) and mix. 5. Repeat this dilution pattern through well H1 and leave the last well (H2) as DMSO only. 6. Remove 4 n1 of diluted compounds and add to 96 n1 of 1× Assay Buffer in a 96-well plate making 4× compound dilutions. Kinase Reaction: 1. Add 2.5 μl of 4× compound dilutions from the first column of the 96-well plate to every other well of column 1 of a 384-well plate with an 8-channel pipette. Repeat for columns 2 and 3. 2. Add 2.5 n1 of 4× compound dilutions from the second column of the 96-well plate to the empty wells of column 1 of the 384-well plate with an 8-channel pipette. Repeat for columns 2 and 3. Note: This procedure aligns the compound dilutions in order of concentration. 3. Add 2.5 n1 of 4× Enzyme/Substrate Solution to all columns 1-6. 4. Preincubate for 30 min. at RT (shaker). 5. Add 5 n1 of ATP Solution to all wells to start reactions. 6. Shake the assay plate on a plate shaker for 30 seconds. 7. Incubate the assay plate for one hour at room temperature (20-25° C.). Stop Step and Fluorescence Detection: 1. Add 10 n1 of Antibody/EDTA Solution to each well in columns 1-9. 2. Shake the assay plate on a plate shaker for 30 seconds. 3. Incubate the assay plate for one hour at room temperature (20-25° C.). 4. Measure the GFP (FRET) and terbium (reference) emission signals on a fluorescence plate reader (e.g. Perkin Elmer Envision). Data Analysis: 1. Calculate the emission ratio for each sample by dividing the GFP (FRET) signal by the terbium (reference) signal. 2. Plot the concentration of each compound versus the emission ratio. Determine the concentration of compound required to reach 50% of the maximum signal (IC50). Determination of IC50 values can be obtained by curve fitting (sigmoidal dose response, variable slope) using Prism software from GraphPad). Inhibition of Proliferation: CyQuant PC-3 Description: […]
In general terms: TR-FRET usually uses a lanthanide donor and a delayed reading to cut background.

The subject of a further assay is PC-3 cells. Description: Inhibition of proliferation: CyQuant PC-3. In kind it is cell-based. To be noted: 72 h; PC-3 human prostate carcinoma cells, incubated with compounds for 3 days, CyQuant NF DNA dye. The procedure: • GFP-4E-BP1 substrate; Invitrogen order no. PV4759 • Lanthascreen Tb-anti-p4E-BP1 (pThr46) Antibody Kit; Invitrogen order no. PV4758 • FRAP1 (mTOR) kinase; Invitrogen order no. […] Preparation of Reagents: Note: Thaw and keep mTOR, the substrate, ATP, and the antibody on ice prior to making working dilutions. Working dilutions of these components can be kept at room temperature for short periods of time the day of use. 1. Add 2 ml of 5× Assay Buffer to 8 ml water to prepare 10 ml of 1× Assay Buffer. Note: The concentration of 1× Assay Buffer is 50 mM HEPES pH 7.5, 0.01% Polysorbate 20, 1 mM EGTA, and 10 mM MnCl2. 2. Prepare Antibody/EDTA Solution by first adding 2.75 n1 of Tb-anti p4E-BP1 Antibody to 2397 n1 of LanthaScreen™ TR-FRET Dilution Buffer. Then, add 100 n1 of 0.5 M EDTA. 3. Prepare 4× Substrate/Enzyme Solution by first adding 72 n1 of GFP-4E-BP1 (22 nM) to 926 n1 of 1× Assay Buffer. Then, add 1.6 n1 of mTOR (0.45 mg/mL). 4. Prepare ATP Solution by adding 3.2 n1 of 10 mM ATP to 1997 n1 of 1× Assay Buffer. Serial Dilution of Inhibitors (16 Point Curve): Note: It is recommended that inhibitors be serially diluted in DMSO, then diluted to a 4× working concentration with 1× Assay Buffer. The below procedure describes dilution of compounds in a 96-well format prior to transfer to a 384-well format for kinase assays. This procedure calls for dilution of the compounds in 2 adjacent columns of a 96-well plate, which upon transfer to a single column of a 384-well plate with an 8-channel pipette will align the samples in order of concentration. 1. Dispense 40 n1 of DMSO to two adjacent columns of a 96 well plate per compound (e.g. columns 1 and 2). 2. Add 10 n1 of inhibitor stock (10 mM) to the first well of the first column (A1) and mix. 3. Remove 10 n1 from A1 and transfer to the adjacent well in the next column (B1) and mix. 4. Remove 10 n1 from B1 and transfer to the next well in the first column (B2) and mix. 5. Repeat this dilution pattern through well H1 and leave the last well (H2) as DMSO only. 6. Remove 4 n1 of diluted compounds and add to 96 n1 of 1× Assay Buffer in a 96-well plate making 4× compound dilutions. Kinase Reaction: 1. Add 2.5 μl of 4× compound dilutions from the first column of the 96-well plate to every other well of column 1 of a 384-well plate with an 8-channel pipette. Repeat for columns 2 and 3. 2. Add 2.5 n1 of 4× compound dilutions from the second column of the 96-well plate to the empty wells of column 1 of the 384-well plate with an 8-channel pipette. Repeat for columns 2 and 3. Note: This procedure aligns the compound dilutions in order of concentration. 3. Add 2.5 n1 of 4× Enzyme/Substrate Solution to all columns 1-6. 4. Preincubate for 30 min. at RT (shaker). 5. Add 5 n1 of ATP Solution to all wells to start reactions. 6. Shake the assay plate on a plate shaker for 30 seconds. 7. Incubate the assay plate for one hour at room temperature (20-25° C.). Stop Step and Fluorescence Detection: 1. Add 10 n1 of Antibody/EDTA Solution to each well in columns 1-9. 2. Shake the assay plate on a plate shaker for 30 seconds. 3. Incubate the assay plate for one hour at room temperature (20-25° C.). 4. Measure the GFP (FRET) and terbium (reference) emission signals on a fluorescence plate reader (e.g. Perkin Elmer Envision). Data Analysis: 1. Calculate the emission ratio for each sample by dividing the GFP (FRET) signal by the terbium (reference) signal. 2. Plot the concentration of each compound versus the emission ratio. Determine the concentration of compound required to reach 50% of the maximum signal (IC50). Determination of IC50 values can be obtained by curve fitting (sigmoidal dose response, variable slope) using Prism software from GraphPad). Inhibition of Proliferation: CyQuant PC-3 Description:
The CyQuant NF assay is based on measurement of cellular DNA content via fluorescent dye binding. Because cellular DNA content is highly regulated, it is closely proportional to cell number. […]

T1 sequence (P42345 1360-2549 limits assumed): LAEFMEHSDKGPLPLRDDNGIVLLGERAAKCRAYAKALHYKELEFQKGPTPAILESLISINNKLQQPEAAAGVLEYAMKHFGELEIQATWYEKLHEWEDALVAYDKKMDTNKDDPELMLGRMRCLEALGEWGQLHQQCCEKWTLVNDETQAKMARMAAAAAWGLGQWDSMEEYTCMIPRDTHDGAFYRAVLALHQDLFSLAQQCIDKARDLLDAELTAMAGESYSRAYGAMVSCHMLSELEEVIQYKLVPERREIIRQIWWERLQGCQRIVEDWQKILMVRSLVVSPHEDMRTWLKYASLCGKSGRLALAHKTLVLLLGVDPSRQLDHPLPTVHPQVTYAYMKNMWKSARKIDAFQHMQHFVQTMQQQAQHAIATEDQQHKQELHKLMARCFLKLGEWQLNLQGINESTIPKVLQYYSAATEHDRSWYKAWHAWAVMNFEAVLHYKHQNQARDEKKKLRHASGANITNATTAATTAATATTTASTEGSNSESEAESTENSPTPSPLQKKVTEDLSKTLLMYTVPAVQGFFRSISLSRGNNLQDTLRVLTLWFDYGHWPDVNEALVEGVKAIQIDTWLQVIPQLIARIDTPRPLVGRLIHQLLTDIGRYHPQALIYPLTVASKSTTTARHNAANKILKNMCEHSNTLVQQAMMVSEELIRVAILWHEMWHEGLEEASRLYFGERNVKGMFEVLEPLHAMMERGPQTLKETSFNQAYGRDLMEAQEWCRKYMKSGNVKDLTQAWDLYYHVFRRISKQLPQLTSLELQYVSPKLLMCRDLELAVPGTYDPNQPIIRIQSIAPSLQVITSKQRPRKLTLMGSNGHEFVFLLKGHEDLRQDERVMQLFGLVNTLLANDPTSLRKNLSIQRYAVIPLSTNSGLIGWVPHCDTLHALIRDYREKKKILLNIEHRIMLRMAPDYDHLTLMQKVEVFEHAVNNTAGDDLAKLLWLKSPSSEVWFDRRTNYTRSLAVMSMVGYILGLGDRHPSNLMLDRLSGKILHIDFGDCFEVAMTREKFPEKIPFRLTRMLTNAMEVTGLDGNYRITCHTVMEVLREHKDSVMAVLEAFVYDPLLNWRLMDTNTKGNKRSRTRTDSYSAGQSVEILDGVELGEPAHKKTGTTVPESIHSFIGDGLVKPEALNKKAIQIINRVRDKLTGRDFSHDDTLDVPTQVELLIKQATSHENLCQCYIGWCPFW

Consider `COc1ccccc1-n1nc(-c2c[nH]cn2)c2c1-c1sc(NC(C)=O)nc1CCC2` [Example B-117], for which the IC50 against FRAP1 (mTOR) kinase was 35 nM. Further, the EC50 in the assay on PC-3 cells worked out at 306 nM.

On FRAP1 (mTOR) kinase, `CCCn1nc(-c2ccc(N)nc2)c2c1-c1sc(NC(C)=O)nc1CCC2` [Example B-131, N-[3-(6-Amino-pyridin-3-yl)-1-propyl-1,4,5,6-tetrahydro-9-thia-1,2,7-triaza-cyclopenta[e]azulen-8-yl]-acetamide] gave an IC50 of 17 nM. Moreover, in the assay on PC-3 cells, the EC50 came to 57 nM.

Take `CC(=O)Nc1nc2c(s1)-c1c(c(-c3ccc(C)nc3)nn1-c1ccncc1C)CCC2` [Example B-90]: inhibition at FRAP1 (mTOR) kinase was half-maximal at 118 nM (IC50). Moreover, the EC50 in the assay with PC-3 cells stood at 422 nM.

As to `CN(C)C(=O)Nc1nc2c(s1)-c1c(c(-c3ccc(N)nc3)nn1-c1ccccc1Cl)CCC2` [Example B-54], on FRAP1 (mTOR) kinase, the midpoint of inhibition, the IC50, lay at 570 nM. The 50% effective concentration (EC50) in the assay on PC-3 cells was found to be 390 nM.

Take `CNc1ccc(-c2nn(-c3ccccc3C)c3c2CCCc2nc(NC(=O)N(C)C)sc2-3)cn1` [Example B-46]: on FRAP1 (mTOR) kinase, it took 1200 nM to reach half-maximal inhibition (IC50). The EC50 in the assay on PC-3 cells turned out to be 447 nM.

On FRAP1 (mTOR) kinase, `COCCC(=O)Nc1nc2c(s1)-c1c(c(-c3ccc(N)nc3)nn1CC(C)C)CCC2` [Example B-134] yielded an IC50 of 60 nM. Also, the EC50 with PC-3 cells turned out to be 143 nM.

At FRAP1 (mTOR) kinase, `C=CCn1nc(-c2ccc(C)nc2)c2c1-c1sc(NC(C)=O)nc1CCC2` [Example B-25] returned an IC50 of 899 nM. In addition, in the assay on PC-3 cells, the EC50 amounted to 437 nM.

For `CN(C)CCCC(=O)Nc1nc2c(s1)-c1c(c(-c3ccc(N)nc3)nn1-c1ccccc1F)CCC2` [Example E-16, N-[3-(6-Amino-pyridin-3-yl)-1-(2-fluoro-phenyl)-1,4,5,6-tetrahydro-9-thia-1,2,7-triaza-cyclopenta[e]azulen-8-yl]-4-dimethylamino-butyramide], on FRAP1 (mTOR) kinase, the IC50 worked out at 13 nM. Moreover, in the assay with PC-3 cells, the EC50 was determined as 32 nM.

Compound `CCCn1nc(-c2ccc(C)nc2)c2c1-c1sc(NC(C)=O)nc1CCC2` [Example B-92] came in with an IC50 at FRAP1 (mTOR) kinase of 152 nM. Further, the EC50 in the assay with PC-3 cells worked out at 221 nM.

`CNc1ccc(-c2nn(-c3ccccc3C)c3c2CCCc2nc(NC(=O)CCC(=O)N(C)C)sc2-3)cn1` [Example B-108] gave an IC50 against FRAP1 (mTOR) kinase of 102 nM. Also, the EC50 in the assay on PC-3 cells came to 106 nM.

For `CC(=O)Nc1nc2c(s1)-c1c(c(-c3c[nH]cn3)nn1-c1ccccc1F)CCC2` [Example B-111, N-[1-(2-Fluoro-phenyl)-3-(1H-imidazol-4-yl)-1,4,5,6-tetrahydro-9-thia-1,2,7-triaza-cyclopenta[e]azulen-8-yl]-acetamide], it took 4 nM to reach half-maximal inhibition on FRAP1 (mTOR) kinase (IC50). Moreover, the EC50 in the assay with PC-3 cells was 38 nM.

With `CNc1ccc(-c2nn(-c3ccncc3C)c3c2CCCc2nc(NC(C)=O)sc2-3)cn1` [Example B-85, N-[3-(6-Methylamino-pyridin-3-yl)-1-(3-methyl-pyridin-4-yl)-1,4,5,6-tetrahydro-9-thia-1,2,7-triaza-cyclopenta[e]azulen-8-yl]-acetamide], it took 24 nM to reach half-maximal inhibition against FRAP1 (mTOR) kinase (IC50). Also, in the assay with PC-3 cells, the EC50 amounted to 76 nM.

Turning to `CNc1ccc(-c2nn(-c3ccccc3C)c3c2CCCc2nc(NC(=O)OC)sc2-3)cn1` [Example B-50, [3-(6-Methylamino-pyridin-3-yl)-1-o-tolyl-1,4,5,6-tetrahydro-9-thia-1,2,7-triaza-cyclopenta[e]azulen-8-yl]-carbamic acid methyl ester], the IC50 at FRAP1 (mTOR) kinase was determined as 30 nM. The EC50 with PC-3 cells came out at 209 nM.

Regarding `CCNc1ccc(-c2nn(-c3ccccc3F)c3c2CCCc2nc(NC(C)=O)sc2-3)cn1` [Example B-76, N-[3-(6-Ethylamino-pyridin-3-yl)-1-(2-fluoro-phenyl)-1,4,5,6-tetrahydro-9-thia-1,2,7-triaza-cyclopenta[e]azulen-8-yl]-acetamide], the IC50 at FRAP1 (mTOR) kinase was 31 nM. For the same compound, the EC50 in the assay on PC-3 cells came out at 79 nM.

On FRAP1 (mTOR) kinase, `CC(C)n1nc(-c2ccc(N)nc2)c2c1-c1sc(NC(=O)CCCN(C)C)nc1CCC2` [Example B-135, N-[3-(6-Amino-pyridin-3-yl)-1-isopropyl-1,4,5,6-tetrahydro-9-thia-1,2,7-triaza-cyclopenta[e]azulen-8-yl]-4-dimethylamino-butyramide] came in with an IC50 of 44 nM. In addition, the EC50 in the assay with PC-3 cells stood at 79 nM.

As usually defined, the IC50 is the point on the concentration scale where inhibition reaches its midpoint. Read a high IC50 as lower potency. A word on the EC50: it is the concentration at which the effect is half-maximal.
